# Test results published in publication PMC10046369, “Low-Affinity/High-Selectivity Dopamine Transport Inhibition Sufficient to Rescue Cognitive Functions in the Aging Rat” (Biomolecules, 2023).
# Key:
# Test in all cases: biochemical
# Parameters in all cases: KINOMEscan competition binding panel, per cent of control
# Conditions in all cases: read-out: %Ctrl @ 2800nM
# ADCK4 = target: T1, ADCK4 (Homo sapiens, UniProt Q96D53)
# T1 construct: gene COQ8B
# Method: (§1) A panel of binding assays covering 450 human kinases and disease-relevant mutations was performed by DiscoverX (KINOMEscan®, Freemont, CA, USA) according to the standard and validated protocol defined by the contractor. […] Kinase binding assays This study was outsourced to DiscoverX (KINOMEscan®, Freemont, CA, USA) and is compliant with the corresponding project BUY004-01-p-00001. […] Results are reported as percent control (% Ctrl), where lower numbers indicate stronger hits in the matrix on the following page(s). %Ctrl calculation: ((test compound signal-positive control signal) / (negative control signal – positive control signal)) x 100.
# BUB1 = BUB1 (Homo sapiens, UniProt O43683)
# Method: as §1
# CAMK4 = CAMK4 (Homo sapiens, UniProt Q16566)
# Method: as §1
# CHEK1 = CHEK1 (Homo sapiens, UniProt O14757)
# Method: as §1
# CSNK1G3 = CSNK1G3 (Homo sapiens, UniProt Q9Y6M4)
# Method: as §1
# CTK = target: T2, CTK (Homo sapiens, UniProt P42679)
# T2 construct: gene MATK
# Method: as §1
# ERN1 = ERN1 (Homo sapiens, UniProt O75460)
# Method: as §1
# FLT3(K663Q) = FLT3(K663Q) (Homo sapiens, UniProt P36888, K663Q)
# Method: as §1
# HASPIN = HASPIN (Homo sapiens, UniProt Q8TF76)
# Method: as §1
# HCK = HCK (Homo sapiens, UniProt P08631)
# Method: as §1
# HIPK2 = HIPK2 (Homo sapiens, UniProt Q9H2X6)
# Method: as §1
# [1] = target: T3, JAK1(JH1domain-catalytic) (Homo sapiens, UniProt P23458)
# T3 construct: JH1domain-catalytic
# Method: as §1
# [2] = target: T4, JAK3(JH1domain-catalytic) (Homo sapiens, UniProt P52333)
# T4 construct: JH1domain-catalytic
# Method: as §1
# KIT(L576P) = KIT(L576P) (Homo sapiens, UniProt P10721, L576P)
# Method: as §1
# MEK3 = target: T5, MEK3 (Homo sapiens, UniProt P46734)
# T5 construct: gene MAP2K3
# Method: as §1
# MLK2 = target: T6, MLK2 (Homo sapiens, UniProt Q02779)
# T6 construct: gene MAP3K10
# Method: as §1
# MST4 = target: T7, MST4 (Homo sapiens, UniProt Q9P289)
# T7 construct: gene STK26
# Method: as §1
# NDR2 = target: T8, NDR2 (Homo sapiens, UniProt Q9Y2H1)
# T8 construct: gene STK38L
# Method: as §1
# PIK3CA(E545K) = PIK3CA(E545K) (Homo sapiens, UniProt P42336, E545K)
# Method: as §1
# PIK3CD = PIK3CD (Homo sapiens, UniProt O00329)
# Method: as §1
# PIM1 = PIM1 (Homo sapiens, UniProt P11309)
# Method: as §1
# PIM2 = PIM2 (Homo sapiens, UniProt Q9P1W9)
# Method: as §1
# RIOK1 = RIOK1 (Homo sapiens, UniProt Q9BRS2)
# Method: as §1
# RIPK1 = RIPK1 (Homo sapiens, UniProt Q13546)
# Method: as §1
# [3] = target: T9, RPS6KA5(Kin.Dom.1-N-terminal) (Homo sapiens, UniProt O75582)
# T9 construct: Kin.Dom.1-N-terminal
# Method: as §1
# SRPK1 = SRPK1 (Homo sapiens, UniProt Q96SB4)
# Method: as §1
# T8 sequence (Q9Y2H1 whole entry): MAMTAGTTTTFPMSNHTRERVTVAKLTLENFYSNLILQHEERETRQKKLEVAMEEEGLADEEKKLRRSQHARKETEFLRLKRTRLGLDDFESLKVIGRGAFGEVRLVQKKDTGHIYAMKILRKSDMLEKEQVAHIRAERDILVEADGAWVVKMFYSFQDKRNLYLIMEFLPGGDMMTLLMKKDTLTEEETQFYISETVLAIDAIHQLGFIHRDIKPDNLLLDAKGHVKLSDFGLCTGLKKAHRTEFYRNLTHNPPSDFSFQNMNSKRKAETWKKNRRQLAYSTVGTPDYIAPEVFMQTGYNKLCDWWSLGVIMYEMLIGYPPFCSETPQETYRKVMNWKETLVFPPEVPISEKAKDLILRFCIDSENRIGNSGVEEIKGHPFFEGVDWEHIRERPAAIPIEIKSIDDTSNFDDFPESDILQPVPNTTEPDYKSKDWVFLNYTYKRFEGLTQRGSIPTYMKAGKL
# Sequence of HASPIN (Q8TF76 whole entry): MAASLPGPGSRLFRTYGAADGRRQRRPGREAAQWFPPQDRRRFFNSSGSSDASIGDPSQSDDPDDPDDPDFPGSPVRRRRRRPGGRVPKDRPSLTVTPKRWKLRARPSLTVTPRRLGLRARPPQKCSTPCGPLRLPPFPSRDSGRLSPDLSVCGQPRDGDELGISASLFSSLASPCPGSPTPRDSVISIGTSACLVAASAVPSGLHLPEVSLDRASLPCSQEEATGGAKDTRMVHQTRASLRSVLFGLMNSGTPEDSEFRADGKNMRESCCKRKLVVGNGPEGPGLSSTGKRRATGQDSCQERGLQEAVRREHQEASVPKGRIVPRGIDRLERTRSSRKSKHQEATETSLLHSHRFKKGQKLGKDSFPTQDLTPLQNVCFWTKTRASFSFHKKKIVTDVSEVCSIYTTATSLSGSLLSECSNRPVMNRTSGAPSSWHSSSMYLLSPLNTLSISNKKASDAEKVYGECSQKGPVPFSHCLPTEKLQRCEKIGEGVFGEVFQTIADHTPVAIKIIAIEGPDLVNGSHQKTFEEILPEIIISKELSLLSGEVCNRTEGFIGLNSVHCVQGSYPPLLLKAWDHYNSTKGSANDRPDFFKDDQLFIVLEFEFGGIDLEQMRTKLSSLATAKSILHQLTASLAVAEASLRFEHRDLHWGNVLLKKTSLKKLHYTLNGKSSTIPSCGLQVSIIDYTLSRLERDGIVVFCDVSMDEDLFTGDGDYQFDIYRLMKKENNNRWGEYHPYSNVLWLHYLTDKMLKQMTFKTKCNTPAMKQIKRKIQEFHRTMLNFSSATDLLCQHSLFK
# T6 sequence (Q02779 whole entry): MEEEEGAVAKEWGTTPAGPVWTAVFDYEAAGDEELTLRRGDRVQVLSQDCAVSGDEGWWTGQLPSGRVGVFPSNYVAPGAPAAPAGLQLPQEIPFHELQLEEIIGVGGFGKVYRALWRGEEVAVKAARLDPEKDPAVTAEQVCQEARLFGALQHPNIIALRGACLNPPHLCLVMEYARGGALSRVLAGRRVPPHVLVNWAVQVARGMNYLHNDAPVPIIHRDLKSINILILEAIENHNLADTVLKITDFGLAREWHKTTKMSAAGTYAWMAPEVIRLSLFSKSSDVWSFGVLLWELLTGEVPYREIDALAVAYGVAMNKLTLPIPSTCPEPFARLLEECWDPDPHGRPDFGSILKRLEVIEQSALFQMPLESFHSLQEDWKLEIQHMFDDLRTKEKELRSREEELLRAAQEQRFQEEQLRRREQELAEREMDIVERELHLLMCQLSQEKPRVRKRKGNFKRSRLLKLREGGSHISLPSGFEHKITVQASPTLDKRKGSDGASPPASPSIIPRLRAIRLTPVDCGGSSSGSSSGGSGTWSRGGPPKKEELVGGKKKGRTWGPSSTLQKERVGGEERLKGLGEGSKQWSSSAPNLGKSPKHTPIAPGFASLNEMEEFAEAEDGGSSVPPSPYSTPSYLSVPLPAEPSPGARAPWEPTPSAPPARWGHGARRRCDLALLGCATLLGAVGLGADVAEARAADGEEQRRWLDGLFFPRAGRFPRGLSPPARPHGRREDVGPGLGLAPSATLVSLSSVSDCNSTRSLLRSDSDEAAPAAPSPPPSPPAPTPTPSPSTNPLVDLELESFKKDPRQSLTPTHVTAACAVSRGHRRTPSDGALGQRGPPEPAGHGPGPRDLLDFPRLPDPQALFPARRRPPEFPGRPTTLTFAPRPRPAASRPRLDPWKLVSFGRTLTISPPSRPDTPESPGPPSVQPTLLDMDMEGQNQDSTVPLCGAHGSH
# T3 sequence (P23458 whole entry): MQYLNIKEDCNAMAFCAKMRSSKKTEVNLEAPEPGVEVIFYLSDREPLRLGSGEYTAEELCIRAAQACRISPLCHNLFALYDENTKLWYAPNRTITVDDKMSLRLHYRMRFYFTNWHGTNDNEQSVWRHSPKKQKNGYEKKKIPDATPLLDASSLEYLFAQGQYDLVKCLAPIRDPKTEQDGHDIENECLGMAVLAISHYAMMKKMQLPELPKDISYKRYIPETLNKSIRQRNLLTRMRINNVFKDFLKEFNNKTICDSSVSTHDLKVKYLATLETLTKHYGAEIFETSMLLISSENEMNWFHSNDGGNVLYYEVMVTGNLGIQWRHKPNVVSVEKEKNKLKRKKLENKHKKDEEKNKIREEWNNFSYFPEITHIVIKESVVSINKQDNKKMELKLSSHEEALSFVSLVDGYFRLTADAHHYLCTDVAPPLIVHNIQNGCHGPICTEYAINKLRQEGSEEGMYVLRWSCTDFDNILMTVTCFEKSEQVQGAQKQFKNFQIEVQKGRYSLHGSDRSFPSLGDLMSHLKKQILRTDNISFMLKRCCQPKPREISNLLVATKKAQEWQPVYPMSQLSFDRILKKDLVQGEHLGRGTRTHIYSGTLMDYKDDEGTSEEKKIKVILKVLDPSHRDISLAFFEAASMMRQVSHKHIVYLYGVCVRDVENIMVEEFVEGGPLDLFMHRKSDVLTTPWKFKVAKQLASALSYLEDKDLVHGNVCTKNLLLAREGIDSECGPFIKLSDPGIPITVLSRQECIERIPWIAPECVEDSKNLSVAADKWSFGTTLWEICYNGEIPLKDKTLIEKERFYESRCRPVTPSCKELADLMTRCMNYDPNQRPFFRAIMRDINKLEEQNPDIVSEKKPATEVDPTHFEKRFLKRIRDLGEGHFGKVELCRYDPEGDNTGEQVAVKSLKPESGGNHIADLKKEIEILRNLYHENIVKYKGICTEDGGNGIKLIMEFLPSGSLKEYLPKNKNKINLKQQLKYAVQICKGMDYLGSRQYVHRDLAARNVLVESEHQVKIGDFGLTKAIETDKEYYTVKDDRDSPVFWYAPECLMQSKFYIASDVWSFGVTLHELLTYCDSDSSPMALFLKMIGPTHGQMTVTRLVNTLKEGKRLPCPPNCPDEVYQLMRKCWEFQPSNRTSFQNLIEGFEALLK
# Sequence of PIM2 (Q9P1W9 whole entry): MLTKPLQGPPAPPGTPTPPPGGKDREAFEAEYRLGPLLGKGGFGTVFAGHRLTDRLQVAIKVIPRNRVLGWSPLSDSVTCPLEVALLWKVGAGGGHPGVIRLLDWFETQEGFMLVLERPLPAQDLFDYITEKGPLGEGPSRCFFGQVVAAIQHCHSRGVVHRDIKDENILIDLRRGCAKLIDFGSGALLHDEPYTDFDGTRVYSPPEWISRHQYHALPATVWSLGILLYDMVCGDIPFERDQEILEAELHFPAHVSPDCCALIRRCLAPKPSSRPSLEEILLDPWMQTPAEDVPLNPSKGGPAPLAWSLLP
# Sequence of BUB1 (O43683 whole entry): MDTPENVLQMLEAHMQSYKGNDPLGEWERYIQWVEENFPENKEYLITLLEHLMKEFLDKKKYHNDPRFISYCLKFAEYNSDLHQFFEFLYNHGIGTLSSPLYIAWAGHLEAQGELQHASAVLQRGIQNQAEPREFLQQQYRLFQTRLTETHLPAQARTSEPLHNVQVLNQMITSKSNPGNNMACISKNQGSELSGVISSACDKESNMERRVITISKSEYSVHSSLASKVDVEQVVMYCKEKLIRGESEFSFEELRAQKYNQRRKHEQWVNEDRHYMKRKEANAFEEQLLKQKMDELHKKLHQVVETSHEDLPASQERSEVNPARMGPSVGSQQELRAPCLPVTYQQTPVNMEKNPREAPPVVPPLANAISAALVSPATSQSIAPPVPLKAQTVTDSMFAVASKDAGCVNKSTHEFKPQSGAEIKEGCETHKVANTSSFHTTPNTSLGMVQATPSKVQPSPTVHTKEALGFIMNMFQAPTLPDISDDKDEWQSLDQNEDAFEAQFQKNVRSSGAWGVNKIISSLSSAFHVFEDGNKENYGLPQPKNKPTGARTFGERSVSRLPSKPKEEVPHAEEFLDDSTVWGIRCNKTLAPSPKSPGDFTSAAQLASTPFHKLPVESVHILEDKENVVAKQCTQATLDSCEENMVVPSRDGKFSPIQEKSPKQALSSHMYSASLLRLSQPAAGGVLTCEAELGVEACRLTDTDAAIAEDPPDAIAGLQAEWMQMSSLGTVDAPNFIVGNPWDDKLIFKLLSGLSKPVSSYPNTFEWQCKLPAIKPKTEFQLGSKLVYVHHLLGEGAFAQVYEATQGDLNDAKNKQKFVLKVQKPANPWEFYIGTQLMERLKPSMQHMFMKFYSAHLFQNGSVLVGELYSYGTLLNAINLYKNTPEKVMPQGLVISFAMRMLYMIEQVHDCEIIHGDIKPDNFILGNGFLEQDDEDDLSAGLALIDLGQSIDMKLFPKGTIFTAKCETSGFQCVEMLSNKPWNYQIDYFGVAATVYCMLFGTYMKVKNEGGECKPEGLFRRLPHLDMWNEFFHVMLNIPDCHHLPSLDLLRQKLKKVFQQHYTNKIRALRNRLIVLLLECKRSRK
compound,measurement,setting,value
"[O-][S@@+](Cc1cncs1)C(c1ccccc1)c1ccccc1 [S-CE-123, (S)-5-((Benzhydrylsulfinyl)Methyl)Thiazole]",remaining binding at 2.8 µM,ADCK4,96%
same,remaining binding at 2.8 µM,BUB1,100%
same,remaining binding at 2.8 µM,CAMK4,91%
same,remaining binding at 2.8 µM,CHEK1,89%
same,remaining binding at 2.8 µM,CSNK1G3,98%
same,remaining binding at 2.8 µM,CTK,51%
same,remaining binding at 2.8 µM,ERN1,86%
same,remaining binding at 2.8 µM,FLT3(K663Q),96%
same,remaining binding at 2.8 µM,HASPIN,95%
same,remaining binding at 2.8 µM,HCK,99%
same,remaining binding at 2.8 µM,HIPK2,100%
same,remaining binding at 2.8 µM,[1],93%
same,remaining binding at 2.8 µM,[2],100%
same,remaining binding at 2.8 µM,KIT(L576P),99%
same,remaining binding at 2.8 µM,MEK3,86%
same,remaining binding at 2.8 µM,MLK2,96%
same,remaining binding at 2.8 µM,MST4,100%
same,remaining binding at 2.8 µM,NDR2,82%
same,remaining binding at 2.8 µM,PIK3CA(E545K),82%
same,remaining binding at 2.8 µM,PIK3CD,86%
same,remaining binding at 2.8 µM,PIM1,100%
same,remaining binding at 2.8 µM,PIM2,100%
same,remaining binding at 2.8 µM,RIOK1,77%
same,remaining binding at 2.8 µM,RIPK1,80%
same,remaining binding at 2.8 µM,[3],100%
same,remaining binding at 2.8 µM,SRPK1,92%
